From PubChem BioAssay (NCI)
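Test compounds were applied to cells in 96-well plates for 48 hours at 5 doses. GI50 marks 50% less growth. TGI denotes the concentration required for complete inhibition of growth.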

Tests used:
Assay in all cases: NCI anticancer screen, dose series, 48 h; in the data active = GI50 below about 0.43 µM; inactive = the rest
[1] = test system: ACHN renal
[2] = test system: MOLT-4 leukemia
[3] = test system: SNB-19 CNS
[4] = test system: SK-MEL-2 melanoma
[5] = test system: EKVX NSCLC
[6] = test system: SK-MEL-28 melanoma
[7] = test system: SR leukemia
[8] = test system: UACC-62 melanoma
[9] = test system: SNB-75 CNS
[10] = test system: HS 578T breast

COC1=CC(=O)NCCN1
> 100 µM: TGI [1] | TGI [2] | TGI [3] | TGI [4] | TGI [5] | TGI [6] | TGI [7] | TGI [8] | TGI [9]

O=P1(Oc2ccccc2)NCc2ncccc2O1 (stereo not given)
> 100 µM: TGI [1] | TGI [2] | TGI [3] | TGI [4] | TGI [5] | TGI [6] | TGI [7] | TGI [8] | TGI [9]

O=C1C=C2CC[C@H]3[C@@H]4CC[C@H](Oc5c6ccccc6nc6ccccc56)[C@H]4CC[C@@H]3[C@H]2CC1
91.8 µM: TGI [9]
> 100 µM: TGI [1] | TGI [3] | TGI [4] | TGI [5] | TGI [6] | TGI [8] | TGI [10]

O=[N+]([O-])c1ccc(COc2cccc3cccnc23)cc1
78.3 µM: TGI [9]
> 100 µM: TGI [3] | TGI [4]
45.2 µM: TGI [8]
70.3 µM: TGI [5]
76.8 µM: TGI [1]
85 µM: TGI [6]
13.6 µM: TGI [7]
31.4 µM: TGI [2]

O=[N+]([O-])c1ccc(O)c(C=NCC2CCCN3CCCCC23)c1 (stereo not given)
89.1 µM: TGI [1]
78.8 µM: TGI [8]
46.6 µM: TGI [10]
> 100 µM: TGI [3] | TGI [5] | TGI [9]

CCN(CC)CC(=O)Nc1ccc2c(c1)C(=O)c1ccc(NC(=O)CN(CC)CC)cc1C2=O
> 100 µM: TGI [4] | TGI [5] | TGI [6] | TGI [8]
89.6 µM: TGI [9]
41.7 µM: TGI [7]
73.3 µM: TGI [1]
81.3 µM: TGI [3]
81.5 µM: TGI [2]

CN=C(NC)N(C)c1nc(=[N+](C)C)ss1
> 100 µM: TGI [1] | TGI [2] | TGI [3] | TGI [4] | TGI [5] | TGI [6] | TGI [7] | TGI [8]

COc1ccc2c(c1)CCN1C3=C(CCC3)C(=O)C[C@@H]21
> 100 µM: TGI [1] | TGI [2] | TGI [3] | TGI [4] | TGI [5] | TGI [6] | TGI [7] | TGI [8] | TGI [9]

NC(C(=O)OC(=O)c1ccccc1)C(=O)OC(=O)c1ccccc1
> 100 µM: TGI [1] | TGI [2] | TGI [3] | TGI [4] | TGI [5] | TGI [6] | TGI [10] | TGI [9]

CCCCc1c2c(nc3c1CC/C(=C\c1ccc([N+](=O)[O-])cc1)C3=O)CCCC2
35.5 µM: TGI [7]
3.28 µM: TGI [1]
23.7 µM: TGI [5]
3.67 µM: TGI [3]
7.72 µM: TGI [2]
20.6 µM: TGI [9]
3 µM: TGI [8]
3.12 µM: TGI [6]

Cc1cc(C)c(C(=O)/C=C/c2ccccc2)c(C)c1
> 100 µM: TGI [1] | TGI [2] | TGI [5] | TGI [7] | TGI [8] | TGI [9]
75.3 µM: TGI [3]
30.8 µM: TGI [4]

Cc1nc2ccccc2n1Cc1nnc2n1N=C(c1ccccc1)CS2
> 100 µM: TGI [1] | TGI [2] | TGI [3] | TGI [5] | TGI [6] | TGI [10]
99.4 µM: TGI [8]
59 µM: TGI [9]
40.7 µM: TGI [4]

Cc1ccc(C)c(COCCOCn2c(=O)[nH]c(=O)c3cc(Br)ccc32)c1
> 100 µM: TGI [1] | TGI [2] | TGI [3] | TGI [4] | TGI [5] | TGI [6] | TGI [7] | TGI [8] | TGI [9]

COC[C@@H](N=CN1CCc2cc(OC)c(OC)cc2C1)C(C)(C)C
> 100 µM: TGI [1] | TGI [2] | TGI [3] | TGI [5] | TGI [6] | TGI [7] | TGI [8] | TGI [9]

COc1ccc(-c2nc3c(nc2-c2ccc(OC)cc2)N(C)S(=O)(=O)N=C3N)cc1
> 100 µM: TGI [3] | TGI [6] | TGI [9]
48.5 µM: TGI [2]
35.3 µM: TGI [7]
57.7 µM: TGI [4]
94.3 µM: TGI [8]
80 µM: TGI [1]

COc1ccc(-c2cc(-c3ccccc3)nc3c2CC(=O)Nc2ccccc2-3)cc1OC
> 100 µM: TGI [1] | TGI [2] | TGI [3] | TGI [4] | TGI [5] | TGI [6] | TGI [7] | TGI [8]
2.67 µM: TGI [9]

NC(=S)N/N=C1\CCCCC1C(O)(C(F)(F)Cl)C(F)(F)Cl (stereo not given)
> 10 µM: TGI [1] | TGI [2] | TGI [3] | TGI [4] | TGI [5] | TGI [6] | TGI [8] | TGI [10] | TGI [9]

CCc1c(C)c2ccc(OCC(=O)N=Nc3c(O)[nH]c4ccccc34)c(C)c2oc1=O
inactive: GI50 [1] > 33.3 µM | GI50 [2] 1.15 µM | GI50 [4] > 33.3 µM | GI50 [5] > 33.3 µM | GI50 [7] 1.2 µM
> 33.3 µM: TGI [1] | TGI [2] | TGI [4] | TGI [5] | TGI [7] | TGI [8]

COc1ccc(/C=C2\CN(C)CC3C2=NN(c2ccccc2)C3c2ccc(OC)cc2)cc1 (stereo not given)
> 100 µM: TGI [1] | TGI [2] | TGI [3] | TGI [5] | TGI [6] | TGI [8] | TGI [10]

CC(C)(SCc1ccccc1)C(N)C(=O)O (stereo not given)
> 100 µM: TGI [1] | TGI [2] | TGI [3] | TGI [4] | TGI [5] | TGI [6] | TGI [7] | TGI [8] | TGI [9]
